One block for each molecule: values may come before it. Calls of active or inactive are those of the source.
What was measured:
[1] = test system: INS1; test: beta cell apoptosis inhibitors, cytokine rescue, dose response, luminescence, retest (AID 449756); format: functional, cell-based; conditions: Rattus norvegicus;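 further: cell death triggered by IL-1 beta plus TNF-alpha plus IFN-gamma mixture; protective hits raise ATP signal compared with cytokine alone wells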
[2] = molecular target: T1, COUP transcription factor 2 (Homo sapiens, UniProt P24468); test: Luminescence-based cell-based high throughput dose response assay to identify inhibitors of COUP-TFII (NR2F2).; format: functional;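 further: HEK293 cells transiently cotransfected with COUP-TFII expression vector and reporter; luciferase reporter luminescence driven by COUP-TFII from the pX2-168 reporter plasmid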
T1 sequence (P24468 whole entry): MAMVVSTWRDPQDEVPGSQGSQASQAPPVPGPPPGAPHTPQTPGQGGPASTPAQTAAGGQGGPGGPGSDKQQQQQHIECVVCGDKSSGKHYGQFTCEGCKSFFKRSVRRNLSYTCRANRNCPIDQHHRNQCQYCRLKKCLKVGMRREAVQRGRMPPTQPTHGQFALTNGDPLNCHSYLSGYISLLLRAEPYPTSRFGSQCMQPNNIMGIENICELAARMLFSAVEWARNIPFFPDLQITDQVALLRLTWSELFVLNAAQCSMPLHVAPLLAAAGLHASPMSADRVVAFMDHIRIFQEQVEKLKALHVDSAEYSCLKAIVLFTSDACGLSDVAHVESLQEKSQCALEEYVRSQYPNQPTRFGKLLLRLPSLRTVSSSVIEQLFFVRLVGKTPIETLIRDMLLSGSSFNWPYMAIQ

[3] = molecular target: Prothrombin (Homo sapiens, UniProt P00734); test: Thrombin 1536 HTS Dose Response Confirmation. [Related pubchem assays: 1046 (Thrombin 1536 HTS; hits were confirmed in this assay)]; format: functional
[4] = P. falciparum Dd2 growth inhibitors, dose response, SYBR Green, dry powder samples (AID 1159566); format: functional, cell-based;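 further: potency for growth inhibition with lower SYBR green DNA signal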
[5] = P. falciparum ATP4 D1247Y mutant growth inhibitors, dose response, NITD609-resistant line, SYBR Green, dry powder (AID 1159571); format: functional, cell-based;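 further: parasites synchronized at ring stage by sorbitol before testing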
[6] = P. falciparum 3D7-ScDHODH growth inhibitors, dose response, SYBR Green, dry powder samples (AID 1159570); format: functional, cell-based;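 further: parasite growth measured after 72 hours of compound exposure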
[7] = molecular target: Paired box protein Pax-8 (Homo sapiens, UniProt Q06710); test: inhibitors of PAX8-driven TPO luciferase reporter, dose response, RMG-I cells, cherry-pick (AID 687027); format: functional, cell-based;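 further: luciferase reporter driven by Pax8 target thyroperoxidase promoter measured by SteadyGlo luminescence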
[8] = HepG2 cell cytotoxicity, dose response, cytotoxicity control, plate reader, dry powder samples (AID 1159569); format: functional, cell-based;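 further: inhibitor potency with signal falling toward the positive control level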
[9] = P. falciparum Dd2 growth inhibitors, dose response, SYBR Green, cherry-picked samples (AID 1159567); format: functional, cell-based
[10] = molecular target: T2, Galanin receptor type 3 (Homo sapiens, UniProt O60755); test: Fluorescence-based cell-based primary high throughput dose response assay to identify antagonists of the Galanin Receptor 3 (GalR3).; format: functional
T2 sequence (O60755 whole entry): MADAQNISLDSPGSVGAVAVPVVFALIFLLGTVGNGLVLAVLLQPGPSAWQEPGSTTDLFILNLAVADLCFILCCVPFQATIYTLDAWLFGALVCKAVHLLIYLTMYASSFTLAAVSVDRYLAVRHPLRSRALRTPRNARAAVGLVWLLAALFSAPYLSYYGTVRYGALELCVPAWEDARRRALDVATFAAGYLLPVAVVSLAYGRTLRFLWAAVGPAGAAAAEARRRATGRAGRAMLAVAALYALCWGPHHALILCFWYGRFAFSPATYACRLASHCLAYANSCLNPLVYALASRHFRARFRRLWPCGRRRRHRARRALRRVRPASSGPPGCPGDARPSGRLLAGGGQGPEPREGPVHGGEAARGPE

[11] = cells; format: functional, cell-based; conditions: HEK-CNG
[12] = Vero cell cytotoxicity, dose response, cytotoxicity control for Vif-APOBEC3G degradation inhibitor project, Vero cells (AID 1117358); format: functional; conditions: Human immunodeficiency virus 1, Vero
[13] = molecular target: Large T antigen (Simian virus 40, UniProt P03070); format: functional, Betapolyomavirus macacae;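 further: Confirmatory-stage PubChem screen for compounds that inhibit SV40 T antigen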
[14] = molecular target: T3, fMet-Leu-Phe receptor (Homo sapiens, UniProt P21462); test: FPR ligands, dose response (AID 519); format: functional
T3 sequence (P21462 whole entry): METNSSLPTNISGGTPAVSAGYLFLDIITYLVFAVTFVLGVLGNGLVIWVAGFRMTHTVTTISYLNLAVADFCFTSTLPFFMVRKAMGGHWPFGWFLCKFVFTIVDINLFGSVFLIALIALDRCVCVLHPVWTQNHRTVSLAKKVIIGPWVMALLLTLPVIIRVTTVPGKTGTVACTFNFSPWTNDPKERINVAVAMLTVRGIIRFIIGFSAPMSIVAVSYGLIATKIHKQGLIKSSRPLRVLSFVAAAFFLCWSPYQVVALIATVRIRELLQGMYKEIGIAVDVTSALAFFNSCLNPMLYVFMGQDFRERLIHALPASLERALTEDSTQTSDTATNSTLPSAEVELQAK

[15] = molecular target: Cytochrome P450 3A4 (Homo sapiens, UniProt P08684);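 further: CYP3A4 tested as one member of a cytochrome P450 panel screen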
[16] = NIH:OVCAR-3 ovarian cancer cell cytotoxicity, dose response, PAX8 inhibitor project, plate reader, dry powder samples (AID 743044); format: functional, cell-based
[17] = cytotoxicity in OVCAR8 ovarian cancer cells, dose response, PAX8 project, cell-based, plate reader, dry powder samples (AID 743197); format: functional; conditions: OVCAR-8
[18] = molecular target: T4, Coagulation factor XII (Homo sapiens, UniProt P00748); format: functional;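 further: activated factor XIIa alpha cleaving a fluorogenic AMC peptide substrate; inhibitor potency from loss of enzyme activity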
T4 sequence (P00748 whole entry): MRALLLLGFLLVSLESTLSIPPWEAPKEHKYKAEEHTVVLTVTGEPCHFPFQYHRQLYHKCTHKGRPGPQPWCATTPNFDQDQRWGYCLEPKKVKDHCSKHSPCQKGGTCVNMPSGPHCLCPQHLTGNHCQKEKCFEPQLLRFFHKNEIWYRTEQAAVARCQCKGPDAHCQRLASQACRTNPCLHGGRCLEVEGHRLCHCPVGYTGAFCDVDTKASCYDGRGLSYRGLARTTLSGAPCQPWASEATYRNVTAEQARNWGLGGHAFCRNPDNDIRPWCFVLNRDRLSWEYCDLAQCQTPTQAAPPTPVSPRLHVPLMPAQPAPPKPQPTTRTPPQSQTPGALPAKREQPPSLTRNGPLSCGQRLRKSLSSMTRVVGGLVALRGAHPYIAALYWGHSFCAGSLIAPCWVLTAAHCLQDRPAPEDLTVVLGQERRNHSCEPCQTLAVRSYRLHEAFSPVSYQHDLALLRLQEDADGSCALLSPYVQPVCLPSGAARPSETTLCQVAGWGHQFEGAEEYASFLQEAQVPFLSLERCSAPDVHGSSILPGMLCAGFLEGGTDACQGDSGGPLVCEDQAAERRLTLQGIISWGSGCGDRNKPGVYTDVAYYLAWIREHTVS

[19] = inhibitors of PGC1a acetylation in cells, dose response, cell-based, cherry-picked samples (AID 720514); format: functional;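 further: potency may reflect raised or lowered acetylation signal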
[20] = Luminescence Cell-Based Dose Retest to Confirm Inhibitors of Cancer Stem Cells. [Related pubchem assays (depositor defined):AID2717, AID2721]; format: functional; conditions: Homo sapiens
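Wherever EC50 is given: target is galanin receptor GalR3 read with a cAMP biosensor in HEK293 cells.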

Chain of Paired box protein Pax-8 (Q06710 whole entry): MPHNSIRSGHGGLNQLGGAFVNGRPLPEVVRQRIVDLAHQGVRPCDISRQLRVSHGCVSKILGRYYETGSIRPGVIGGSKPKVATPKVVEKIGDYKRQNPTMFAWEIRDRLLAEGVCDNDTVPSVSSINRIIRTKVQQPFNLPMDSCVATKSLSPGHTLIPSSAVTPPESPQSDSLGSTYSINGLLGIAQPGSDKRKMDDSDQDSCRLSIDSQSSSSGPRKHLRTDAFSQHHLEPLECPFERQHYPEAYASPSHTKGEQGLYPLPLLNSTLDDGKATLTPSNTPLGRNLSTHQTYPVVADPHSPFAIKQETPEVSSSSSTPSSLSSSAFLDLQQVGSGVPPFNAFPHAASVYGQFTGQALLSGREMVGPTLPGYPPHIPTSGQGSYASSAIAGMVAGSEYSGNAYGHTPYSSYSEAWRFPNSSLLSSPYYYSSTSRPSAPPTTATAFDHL
Chain of Cytochrome P450 3A4 (P08684 whole entry): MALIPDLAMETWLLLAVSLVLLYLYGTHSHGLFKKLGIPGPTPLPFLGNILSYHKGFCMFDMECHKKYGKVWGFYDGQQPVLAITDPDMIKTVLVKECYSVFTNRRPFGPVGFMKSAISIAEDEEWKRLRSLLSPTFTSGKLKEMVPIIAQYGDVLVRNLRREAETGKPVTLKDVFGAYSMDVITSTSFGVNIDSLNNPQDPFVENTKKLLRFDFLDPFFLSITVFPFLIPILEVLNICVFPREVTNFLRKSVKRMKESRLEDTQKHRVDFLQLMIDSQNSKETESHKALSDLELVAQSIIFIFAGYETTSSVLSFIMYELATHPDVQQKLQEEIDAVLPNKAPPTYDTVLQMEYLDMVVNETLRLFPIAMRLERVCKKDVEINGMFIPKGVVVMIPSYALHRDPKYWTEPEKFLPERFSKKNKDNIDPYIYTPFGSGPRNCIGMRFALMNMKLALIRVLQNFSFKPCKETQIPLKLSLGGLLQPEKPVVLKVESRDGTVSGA
Chain of Large T antigen (P03070 whole entry): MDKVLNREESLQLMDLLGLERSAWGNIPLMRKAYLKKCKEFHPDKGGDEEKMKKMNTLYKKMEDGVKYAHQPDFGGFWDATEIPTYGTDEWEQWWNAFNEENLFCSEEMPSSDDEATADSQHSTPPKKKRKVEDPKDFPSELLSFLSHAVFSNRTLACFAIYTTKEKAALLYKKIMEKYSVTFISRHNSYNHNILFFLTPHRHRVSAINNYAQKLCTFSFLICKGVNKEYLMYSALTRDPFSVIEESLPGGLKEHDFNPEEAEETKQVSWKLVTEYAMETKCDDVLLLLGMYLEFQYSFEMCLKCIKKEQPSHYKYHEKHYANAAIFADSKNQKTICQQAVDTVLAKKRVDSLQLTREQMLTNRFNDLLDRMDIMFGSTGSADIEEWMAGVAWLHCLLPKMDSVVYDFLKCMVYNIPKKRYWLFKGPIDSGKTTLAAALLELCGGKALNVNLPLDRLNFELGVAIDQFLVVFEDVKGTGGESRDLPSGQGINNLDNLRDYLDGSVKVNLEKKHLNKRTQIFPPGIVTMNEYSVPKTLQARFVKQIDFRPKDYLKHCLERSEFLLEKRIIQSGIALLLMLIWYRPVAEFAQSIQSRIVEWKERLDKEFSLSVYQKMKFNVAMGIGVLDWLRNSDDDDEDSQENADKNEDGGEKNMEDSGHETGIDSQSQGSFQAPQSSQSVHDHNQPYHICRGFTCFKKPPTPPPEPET

Structure (SMILES): O=C(NCCc1cn2ccccc2n1)c1cc(COc2ccc3ncccc3c2)on1
AC50 [1]: 6 µM (active)
IC50 [2]: 8.53 µM (active)

IC50 [3]: > 50 µM (not active)
Structure (SMILES): ClC1(Cl)CC1CSc1nc[nH]n1 (stereo unspecified)

Structure (SMILES): C[C@H](CO)N1C[C@H](C)[C@@H](CN(C)Cc2ccc(Oc3ccccc3)cc2)OCc2ccccc2-c2c(n(C)c3ccccc23)C1=O
AC50 [4]: 2.58 µM (active)
AC50 [5]: 2.82 µM (active)
AC50 [6]: 3.28 µM (active)
AC50 [7]: 17.1 µM (active)
AC50 [8]: 20.3 µM (active)
AC50 [9]: 2.58 µM (active)

Structure (SMILES): CC(=O)c1ccc(N2CCN(C(S)=Nc3ccc(Oc4ccccc4)cc3)CC2)cc1
IC50 [10]: 1.23 µM (active)
EC50 [11]: > 29.9 µM (inactive)
IC50 [2]: 8.27 µM (active)

IC50 [3]: 0.268 µM (active)
Structure (SMILES): CCC(=O)N=C(Nc1cccc(OC)c1)Nc1nc(C)cc(C)n1

IC50 [13]: 61.4 µM (active)
Structure (SMILES): CCOc1cc(N2CCOCC2)c(OCC)cc1NS(=O)(=O)c1ccc(Cl)s1
CC50 [12]: > 40 µM (active)

Ki [14]: > 66.7 µM (inactive)
AC50 [15]: 15.8 µM (inconclusive)
Structure (SMILES): CCC(NC(=O)Nc1cc(OC)c(OC)c(OC)c1)(C(F)(F)F)C(F)(F)F

Structure (SMILES): C[C@@H]1CCCCO[C@@H](CN(C)C(=O)Nc2cccc3ccccc23)[C@H](C)CN([C@H](C)CO)C(=O)c2cc(NS(=O)(=O)c3ccc(Cl)cc3)ccc2O1
AC50 [16]: 36.6 µM (active)
AC50 [7]: 5.29 µM (active)
AC50 [17]: 32.4 µM (active)

IC50 [18]: > 50 µM (inactive)
IC50 [3]: > 50 µM (not active)
Structure (SMILES): CCc1nnc(NC(=O)CCN(c2ccc(C)cc2)S(=O)(=O)c2ccccc2)s1

Structure (SMILES): C=CS(=O)(=O)N(Cc1ccccc1Br)[C@H](CO)Cc1ccccc1
AC50 [19]: 1.05 µM (active)

Structure (SMILES): O=C(Nc1ccc(N2CCN(Cc3ccccc3F)CC2)cc1)c1ccc([N+](=O)[O-])o1
AC50 [19]: 1.58 µM (active)
AC50 [20]: 1.29 µM (active)

Structure (SMILES): COc1ccc(-c2ccccc2[C@H]2[C@@H](C#N)N(C(=O)NC3CCCC3)[C@H]2CO)cc1
AC50 [4]: 1.27 µM (active)
AC50 [5]: 1.72 µM (active)
AC50 [6]: 1.21 µM (active)
AC50 [8]: 65.8 µM (active)
AC50 [9]: 1.9 µM (active)

Structure (SMILES): CSCC[C@@H](Nc1nc(-c2ccccc2)nc2c1oc1ccccc12)C(=O)O
CC50 [12]: > 40 µM (active)
